{"source": "patent US12115173B2", "about": "(Elba Laboratories, priority 2021, dated 2024)", "origin": "cited, not measured here", "data": [{"smiles": "O=C(O)CO", "note": "[glycolic acid]", "values": [{"measurement": "pKa", "result": "about 3.8"}]}]}
